Assay results published in patent publication US8048862B2, “Macrocyclic inhibitors of hepatitis C virus replication” (priority 2008, dated 2011).

Key:
NS3/NS4 complexes = NS3/NS4 complexes (Hepatitis C virus genotype 1a, UniProt P27958); test: NS3/NS4 inhibition activity (IC50); type: biochemical; settings: Table 2, read-out: IC50
Source text: NS3-NS4 inhibition activity can be determined using known assay methods. For example, NS3/NS4 complexes may be formed and inhibitory concentrations of test compounds determined as described in U.S. Patent Application Publication Number 2007/0054842 paragraph numbers 1497-1509, which is incorporated herein by reference in its entirety. Similarly, hepatitis C replicon EC50 may be determined using known assay methods such as described in U.S. Patent Application Publication Number 2007/0054842 paragraph numbers 1510-1515. Assays may be conducted at ambient temperature (23° C.) in assay buffer containing 50 mM Tris-HCl, pH 7.5, 15% glycerol, 0.6 mM Lauryldimethylamine Oxide (LDAO), 25 μM NS4A peptide, and 10 mM Dithiothreitol (DTT).

hepatitis C replicon = hepatitis C replicon EC50; type: cell-based; settings: Hepatitis C virus; Table 2; hepatitis C replicon; read-out: EC50
Source text: NS3-NS4 inhibition activity can be determined using known assay methods.

Sequence of NS3/NS4 complexes (P27958 1027-1657): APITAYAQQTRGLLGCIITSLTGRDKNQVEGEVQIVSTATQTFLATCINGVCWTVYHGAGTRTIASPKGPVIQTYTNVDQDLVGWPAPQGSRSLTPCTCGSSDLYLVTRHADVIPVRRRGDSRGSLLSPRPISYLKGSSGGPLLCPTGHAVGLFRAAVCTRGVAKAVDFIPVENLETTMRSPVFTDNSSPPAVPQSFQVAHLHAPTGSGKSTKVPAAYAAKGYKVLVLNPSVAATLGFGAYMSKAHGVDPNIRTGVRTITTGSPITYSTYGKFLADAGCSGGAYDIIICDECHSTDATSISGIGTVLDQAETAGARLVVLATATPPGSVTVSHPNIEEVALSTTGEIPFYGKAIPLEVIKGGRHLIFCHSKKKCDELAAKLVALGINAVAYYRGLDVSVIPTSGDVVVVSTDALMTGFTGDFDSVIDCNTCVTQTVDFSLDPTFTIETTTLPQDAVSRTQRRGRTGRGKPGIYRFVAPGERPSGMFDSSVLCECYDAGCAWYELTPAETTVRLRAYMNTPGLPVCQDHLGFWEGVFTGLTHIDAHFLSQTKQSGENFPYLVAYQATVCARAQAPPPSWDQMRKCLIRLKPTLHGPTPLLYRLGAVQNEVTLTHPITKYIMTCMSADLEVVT
Sequence of NS3/NS4 complexes (P27958 1658-1711): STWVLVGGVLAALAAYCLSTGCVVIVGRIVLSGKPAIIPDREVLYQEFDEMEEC

Compound | IC50 (NS3/NS4 complexes) [nM] | EC50 (hepatitis C replicon) [nM]
CC1(S(=O)(=O)NC(=O)[C@@]23C[C@H]2/C=C\CCCCC[C@H](Nc2cccc(Cl)c2)C(=O)N2C[C@H](Oc4nc5ccccc5s4)C[C@H]2C(=O)N3)CC1 [Compound 337] | < 10 | 75 to 500
O=C1N[C@]2(C(=O)O)C[C@H]2/C=C\CCCCC[C@H](Nc2cc(C(F)(F)F)cc(C(F)(F)F)c2)C(=O)N2C[C@H](Oc3nc4ccccc4s3)C[C@@H]12 [Compound 338] | 75 to 500 | > 500
CC1(S(=O)(=O)NC(=O)[C@@]23C[C@H]2/C=C\CCCCC[C@H](Nc2ccccc2F)C(=O)N2C[C@H](Oc4nc5ccccc5s4)C[C@H]2C(=O)N3)CC1 [Compound 339] | < 10 | 75 to 500
CC1(S(=O)(=O)NC(=O)[C@@]23C[C@H]2/C=C\CCCCC[C@H](Nc2cc(Cl)cc(Cl)c2)C(=O)N2C[C@H](Oc4nc5ccccc5s4)C[C@H]2C(=O)N3)CC1 [Compound 340] | < 10 | 10 to 75
CC1(S(=O)(=O)NC(=O)[C@@]23C[C@H]2/C=C\CCCCC[C@H](Nc2ccc(F)c(F)c2)C(=O)N2C[C@H](Oc4nc5ccccc5s4)C[C@H]2C(=O)N3)CC1 [Compound 341] | < 10 | 10 to 75
CC1(S(=O)(=O)NC(=O)[C@@]23C[C@H]2/C=C\CCCCC[C@H](Nc2ccc4ccccc4c2)C(=O)N2C[C@H](Oc4nc5ccccc5s4)C[C@H]2C(=O)N3)CC1 [Compound 342] | < 10 | 75 to 500
CC1(S(=O)(=O)NC(=O)[C@@]23C[C@H]2/C=C\CCCCC[C@H](Nc2cc(F)cc(C(F)(F)F)c2)C(=O)N2C[C@H](Oc4nc5ccccc5s4)C[C@H]2C(=O)N3)CC1 [Compound 345] | < 10 | 10 to 75
CC1(S(=O)(=O)NC(=O)[C@@]23C[C@H]2/C=C\CCCCC[C@H](Nc2cc(F)cc(C(F)(F)F)c2)C(=O)N2C[C@H](Oc4nccc5ccccc45)C[C@H]2C(=O)N3)CC1 [Compound 346] | < 10 | < 10
CC1(S(=O)(=O)NC(=O)[C@@]23C[C@H]2/C=C\CCCCC[C@H](Nc2ccc(F)c(C(F)(F)F)c2)C(=O)N2C[C@H](Oc4nccc5ccccc45)C[C@H]2C(=O)N3)CC1 [Compound 347] | < 10 | < 10
O=C1N[C@]2(C(=O)NS(=O)(=O)C3CC3)C[C@H]2/C=C\CCCCC[C@H](Nc2ccc(F)cc2)C(=O)N2C[C@H](Oc3nc4ccccc4s3)C[C@@H]12 [Compound 348] | < 10 | 75 to 500
CC1(S(=O)(=O)NC(=O)[C@@]23C[C@H]2/C=C\CCCCC[C@H](Nc2ccc(F)cc2)C(=O)N2C[C@H](Oc4nc5ccccc5s4)C[C@H]2C(=O)N3)CC1 [Compound 349] | < 10 | 10 to 75
Cc1ccc2nc(O[C@@H]3C[C@H]4C(=O)N[C@]5(C(=O)NS(=O)(=O)C6(C)CC6)C[C@H]5/C=C\CCCCC[C@H](Nc5cc(F)cc(C(F)(F)F)c5)C(=O)N4C3)sc2c1 [Compound 350] | < 10 | 75 to 500
CC1(S(=O)(=O)NC(=O)[C@@]23C[C@H]2/C=C\CCCCC[C@H](Nc2cc(F)cc(C(F)(F)F)c2)C(=O)N2C[C@H](Oc4nc5ccc(Cl)cc5s4)C[C@H]2C(=O)N3)CC1 [Compound 351] | < 10 | 75 to 500
CC1(S(=O)(=O)NC(=O)[C@@]23C[C@H]2/C=C\CCCCC[C@H](Nc2cc(F)cc(C(F)(F)F)c2)C(=O)N2C[C@H](Oc4nc5ccc(Br)cc5s4)C[C@H]2C(=O)N3)CC1 [Compound 352] | < 10 | 10 to 75
CC1(S(=O)(=O)NC(=O)[C@@]23C[C@H]2/C=C\CCCCC[C@H](Nc2cc(F)cc(C(F)(F)F)c2)C(=O)N2C[C@H](Oc4nc5ccccc5o4)C[C@H]2C(=O)N3)CC1 [Compound 353] | < 10 | 75 to 500
COc1ccc2c(O[C@@H]3C[C@H]4C(=O)N[C@]5(C(=O)O)C[C@H]5/C=C\CCCCC[C@H](Nc5cc(F)cc(C(F)(F)F)c5)C(=O)N4C3)cc(-c3ccccc3)nc2c1 [Compound 354] | < 10 | 75 to 500
COc1ccc2c(O[C@@H]3C[C@H]4C(=O)N[C@]5(C(=O)NS(=O)(=O)C6(C)CC6)C[C@H]5/C=C\CCCCC[C@H](Nc5cc(F)cc(C(F)(F)F)c5)C(=O)N4C3)cc(-c3ccccc3)nc2c1 [Compound 355] | < 10 | < 10
COc1ccc2c(O[C@@H]3C[C@H]4C(=O)N[C@]5(C(=O)NS(=O)(=O)C6CC6)C[C@H]5/C=C\CCCCC[C@H](Nc5ccc(F)c(C(F)(F)F)c5)C(=O)N4C3)cc(-c3ccccc3)nc2c1 [Compound 356] | < 10 | < 10
COc1ccc2c(O[C@@H]3C[C@H]4C(=O)N[C@]5(C(=O)NS(=O)(=O)C6(C)CC6)C[C@H]5/C=C\CCCCC[C@H](Nc5cc(F)cc(C(F)(F)F)c5)C(=O)N4C3)cc(-c3nc(C(C)C)cs3)nc2c1C [Compound 358] | < 10 | 10 to 75
COc1ccc2c(O[C@@H]3C[C@H]4C(=O)N[C@]5(C(=O)NS(=O)(=O)C6(C)CC6)C[C@H]5/C=C\CCCCC[C@H](Nc5ccccc5)C(=O)N4C3)cc(-c3nc(C(C)C)cs3)nc2c1C [Compound 359] | < 10 | < 10
COc1ccc2c(O[C@@H]3C[C@H]4C(=O)N[C@]5(C(=O)NS(=O)(=O)C6(C)CC6)C[C@H]5/C=C\CCCCC[C@H](Nc5cccc(C(F)(F)F)c5)C(=O)N4C3)cc(-c3nc(C(C)C)cs3)nc2c1C [Compound 360] | < 10 | < 10
COc1ccc2c(O[C@@H]3C[C@H]4C(=O)N[C@]5(C(=O)NS(=O)(=O)C6(C)CC6)C[C@H]5/C=C\CCCCC[C@H](Nc5cccc(F)c5)C(=O)N4C3)cc(-c3nc(C(C)C)cs3)nc2c1C [Compound 361] | < 10 | < 10
COc1ccc2c(O[C@@H]3C[C@H]4C(=O)N[C@]5(C(=O)NS(=O)(=O)C6(C)CC6)C[C@H]5/C=C\CCCCC[C@H](Nc5ccc(F)cc5)C(=O)N4C3)cc(-c3nc(C(C)C)cs3)nc2c1C [Compound 362] | < 10 | < 10
COc1ccc2c(O[C@@H]3C[C@H]4C(=O)N[C@]5(C(=O)NS(=O)(=O)C6(C)CC6)C[C@H]5/C=C\CCCCC[C@H](Nc5cc(F)cc(F)c5)C(=O)N4C3)cc(-c3nc(C(C)C)cs3)nc2c1C [Compound 363] | < 10 | 10 to 75
CC(C)n1c(O[C@@H]2C[C@H]3C(=O)N[C@]4(C(=O)NS(=O)(=O)C5(C)CC5)C[C@H]4/C=C\CCCCC[C@H](Nc4ccccc4)C(=O)N3C2)nc2ccccc21 [Compound 365] | < 10 | < 10
COc1ccc2c(O[C@@H]3C[C@H]4C(=O)N[C@]5(C(=O)NS(=O)(=O)C6CC6)C[C@H]5/C=C\CCCCC[C@H](Nc5cccc(C(F)(F)F)c5)C(=O)N4C3)cc(-c3nc(C(C)C)cs3)nc2c1C [Compound 369] | < 10 | < 10
COc1ccc2c(O[C@@H]3C[C@H]4C(=O)N[C@]5(C(=O)NS(=O)(=O)C6(C)CC6)C[C@H]5/C=C\CCCCC[C@H](Nc5ccc(F)c(C(F)(F)F)c5)C(=O)N4C3)cc(-c3nc(C(C)C)cs3)nc2c1C [Compound 374] | < 10 | < 10
O=C1N[C@]2(C(=O)NS(=O)(=O)C3CC3)C[C@H]2/C=C\CCCCC[C@H](Nc2ccc(F)c(C(F)(F)F)c2)C(=O)N2C[C@H](Oc3nccc4ccccc34)C[C@@H]12 [Compound 375] | < 10 | < 10
CC(C)n1c(O[C@@H]2C[C@H]3C(=O)N[C@]4(C(=O)NS(=O)(=O)C5(C)CC5)C[C@H]4/C=C\CCCCC[C@H](Nc4cc(F)cc(C(F)(F)F)c4)C(=O)N3C2)nc2ccccc21 [Compound 376] | < 10 | < 10
